Measurements taken from publication PMC4506092, “Utilizing Chemical Genomics to Identify Cytochrome b as a Novel Drug Target for Chagas Disease” (PLoS Pathogens, 2015).
“And” between values parts separate entries of the source, which are not always exact repeats. Identical values can stand only once. Like-named read-outs stand apart in the source and are kept apart here.

Assays:
[1] = system: T. cruzi epimastigotes (GNF7686-resistant, DR); assay: T. cruzi epimastigote growth assay (CellTiter-Glo), GNF7686-resistant; type: cell-based, Trypanosoma cruzi
Experimental: (§1) To determine compound activity on the T. cruzi epimastigote form, epimastigotes (20 μL; 2.5 × 10^5 parasites / mL) were added to 384-well assay plates containing 20 μL of LIT media with pre-dispensed compounds (0.2% DMSO final concentration) and incubated for seven days at 26°C / 0% CO2. Parasite viability was assessed at the end of this incubation period using the CellTiter-Glo Luminescent Cell Viability Assay (Promega). Luminescence as a measure of parasite viability was measured on the EnVision plate reader.
Resistant epimastigotes were cloned by the limiting dilution technique.

[2] = system: T. cruzi epimastigotes (wild-type); assay: T. cruzi epimastigote growth assay (CellTiter-Glo), wild-type; type: cell-based, Trypanosoma cruzi; conditions: for EC50: wild-type T. cruzi, seven days, read-out: Epimastigote EC50, WT
Experimental: as §1

[3] = system: L. donovani promastigotes; assay: Leishmania donovani promastigote proliferation assay; type: cell-based
[4] = system: T. b. brucei procyclics; assay: T. b. brucei procyclic form in vitro efficacy assay; type: cell-based, Trypanosoma brucei brucei; conditions: 72 hours
Experimental: For conversion from the bloodstream form to the procyclic form, bloodstream form parasites were transferred from HMI-9 medium to Differentiating Trypanosome Medium (DTM, pH = 7.2), consisting of: 6.8 g / L NaCl, 400 mg / L KCl, 200 mg / L CaCl2, 140 mg / L NaH2PO4.H2O, 200 mg / L MgSO4.7H2O, 7.94 g / L HEPES, 2.2 g / L NaHCO3, 110 mg / L sodium pyruvate, 10 mg / L phenol red, 14 mg / L hypoxanthine, 1 mg / L biotin, 760 mg / L glycerol, 640 mg / L proline, 236 mg / L glutamic acid, 1.34 g / L glutamine, 7.5 mg / L hemin (in 50 mM sodium hydroxide), 1X MEM amino acid solution (Invitrogen),1X MEM non-essential amino acids solution (Invitrogen), 28.2 mg / L bathocuproine disulfonate.Na2, 182 mg/L cysteine, 0.2 mM 2-mercaptoethanol, 15% heat-inactivated FBS, and 5 mM sodium citrate and cis-aconitate. Following medium exchange, parasites were incubated at a lower temperature (27°C / 5% CO2), monitored for change in morphology to procyclic parasites, and sub-cultured for long-term cultivation.
For compound screening, 20 μliters (5,000 parasites) of T. b. brucei procyclic culture were added to 384-well plate wells filled with 20 μliters of DTM medium and pre-dispensed compounds (0.25% final DMSO concentration). Plates were then incubated for 72 hours at 27°C / 5% CO2. Cell viability was assessed using the CellTiter-Glo Luminescent Cell Viability Assay (Promega).

[5] = system: P. falciparum D10attB; assay: P. falciparum SYBR Green proliferation assay, D10attB line; type: cell-based, Plasmodium falciparum
Experimental: GNF7686 and cytochrome b inhibitors were assayed for activity on two Plasmodium falciparum (P. falciparum) lines: D10attB and yDHODH-D10attB. The D10attB line is reliant on the coenzyme Q-dependent malarial dihydroorotate dehydrogenase (PfDHODH), whereas the yDHODH-D10attB line expresses also the fumarate-utilizing Saccharomyces cerevisiae (S. cerevisiae) DHODH, which circumvents reliance on PfDHODH and renders this line fully resistant to cytochrome b inhibitors. The use of these two lines allows for distinction of selection of potent cytochrome b inhibitors as described in detail in the Results section. Growth and viability of P. falciparum cell lines (in the presence or absence of drug) in infected erythrocytes were assessed using a SYBR Green-based proliferation assay exactly as described previously.

[6] = system: T. cruzi trypomastigotes (wild-type); assay: T. cruzi trypomastigote viability assay (CellTiter-Glo), wild-type; type: cell-based, Trypanosoma cruzi; conditions: 48-hour incubation, read-out: Trypomastigote EC50, WT
Experimental: To assess compound efficacy on trypomastigotes, parasites (30 μL; 2 × 10^6 trypomastigotes / mL) were added to 384-well plates containing 10 μL of RPMI-1640 without phenol red (Invitrogen) and supplemented with 10% FBS and 100 IU penicillin / 100 µg streptomycin per mL, and then treated with compounds (0.2% DMSO final concentration). Following a 48-hour incubation period, viability was assessed using the CellTiter-Glo Luminescent Cell Viability Assay (Promega).

[7] = system: NIH/3T3 fibroblast cells; assay: Mammalian cell cytotoxicity assay (CellTiter-Glo); type: cell-based, mouse; conditions: for Toxicity on the host 3T3 cells (in words): host cells of the intracellular amastigote assay, prevented determination of amastigote EC50
Experimental: NIH/3T3 fibroblast cells were maintained in RPMI-1640 medium supplemented with 10% heat-inactivated FBS and 100 IU penicillin / 100 μg streptomycin per mL at 37°C / 5% CO2. For compound screening, cells were diluted to 4 × 10^4 cells / mL in assay medium (RPMI-1640, 5% FBS, and 100 IU penicillin / 100 μg streptomycin per mL) and seeded at 50 μL / well into 384-well plates. Following overnight incubation, compounds were added to each well (0.2% DMSO final concentration) and plates were further incubated for 96 hours. Cell viability was assessed using the CellTiter-Glo Luminescent Cell Viability Assay (Promega). Measured luminescence values were normalized to the value obtained for 0.2% DMSO, and plotted against the corresponding compound concentration for half maximal cytotoxic concentration (CC50) value determination.

[8] = system: S. cerevisiae strain NF7061; assay: S. cerevisiae susceptibility assay, YPG (glycerol) medium; type: cell-based, Saccharomyces cerevisiae; conditions: 48 hours
Experimental: The minimal inhibitory concentrations (MIC) of the compounds for inhibition of S. cerevisiae drug pump knock-out strain NF7061 (MATa his3Δ 1; leu2Δ 0; met15Δ 0; ura3Δ 0; snq2::KanMX; pdr5::KanMX; pdr1::NAT1; pdr3::KanMX; yap1::NAT1; pdr2::LEU2; yrm1::MET; yor1::LYS2) were determined by a modification of the microdilution technique described elsewhere. Briefly, two-fold dilutions of the compound solution in DMSO were made. They were added to each well of 96-well assay plate containing 200 μL per well of either YPD (1% Difco Yeast Extract, 2% Difco Bacto Peptone and 2% Dextrose) or YPG (3% of glycerol in replacement of 2% Dextrose in YP) medium. Early stationary yeast NF7061 cells grown in either medium were collected and resuspended to 2 × 10^5 cells / mL. Ten microliters of the yeast cell suspension were inoculated to each well of the plates containing medium and compound to achieve a final inoculum of approximately 10^4 CFU / mL. The plates were incubated at 30°C for 24 hours (containing YPD) or 48 hours (containing YPG).

[9] = Trypanosoma cruzi, 168 h, GNF7686-resistant T. cruzi culture, seven days, read-out: Epimastigote EC50, DR
[10] = Saccharomyces cerevisiae, NF7061, MIC visual growth inhibition screen
[11] = Plasmodium falciparum; read-out: P. falciparum EC50, D10attB

SMILES | Shift of epimastigote EC50, GNF7686-resistant vs wild-type [1] | EC50 [1, 9] [nM] | EC50 ([2]; Trypanosoma cruzi, 168 h) [nM] | EC50 ([3]; Leishmania donovani) [nM] | EC50 ([4]; Trypanosoma brucei) [nM] | EC50 ([5]; Plasmodium falciparum, read-out: P. falciparum EC50, D10attB) [nM] | EC50 ([6]; Trypanosoma cruzi) [nM] | Toxicity on the host 3T3 cells (in words) [7] | EC50 [8, 10] [nM] | EC50 [5, 11] [nM] | EC50 ([1]; Trypanosoma cruzi, epimastigote clones, read-out: EC50 of three clones isolated from the GNF7686-resistant culture) [nM] | EC20 value on T. cruzi epimastigotes ([2]; starting concentration of resistance selection) [nM] | Mammalian cell proliferation: no effect observed up to ([7]; mouse) [µM] | EC50 ([1]; GNF7686-resistant T. cruzi culture, seven days, read-out: Epimastigote EC50, DR) [nM] | EC50 [2] [nM] | EC50 [3] [nM] | EC50 [4] [nM] | EC50 ([5]; read-out: P. falciparum EC50, D10attB) [nM] | EC50 [6] [nM] | EC50 ([8]; MIC visual growth inhibition screen) [nM]
CCCCCC[C@H]1C(=O)O[C@H](C)[C@H](NC(=O)c2cccc(NC=O)c2O)C(=O)O[C@@H](C)[C@@H]1OC(=O)CC(C)C [Antimycin A] | 40 fold | 1800 ± 210 | 46 ± 10 | 10 ± 3 | 30 ± 2 | 700 ± 340 | 200 ± 40 | toxicity | < 2 | – | – | – | – | – | – | – | – | – | – | –
O=C(Cn1ccnc1[N+](=O)[O-])NCc1ccccc1 [Benznidazole] | – | 6700 ± 600 | 5500 ± 150 | > 25000 | > 25000 | – | 13000 ± 1800 | – | > 40000 | > 12500 | – | – | – | – | – | – | – | – | – | –
CCc1c(C)c(C#N)c2nc3ccccc3n2c1O [GNF7686] | ~ 5 fold and ~ 4 fold | 730 ± 40 | 160 ± 20 | 460 ± 120 | 590 ± 90 | – | 710 ± 160 | – | 5000 | > 12500 | ~1000 | 10 | > 25 | – | – | – | – | – | – | –
CO/C(=C/C(N)=O)[C@H](C)[C@H](/C=C/c1csc(-c2csc([C@@H](C)/C=C/C=C/C(C)C)n2)n1)OC [Myxothiazol] | – | – | – | – | – | – | – | toxicity | – | – | – | – | – | 430 ± 80 | 490 ± 50 | 3100 ± 450 | 2500 ± 220 | 300 ± 10 | 2900 ± 480 | 70 ± 10
CO\C=C(C(=O)OC)/C(C)=C\C=C\c1ccccc1 [Strobilurin] | – | 340 ± 10 | 590 ± 130 | 4300 ± 820 | 3200 ± 330 | – | 1700 ± 410 | toxicity | 100 ± 20 | 460 ± 270 | – | – | – | – | – | – | – | – | – | –
